This passage reports IC50 results from patent publication US20100069388A1, “N-HYDROXYACRYLAMIDE COMPOUNDS” (ASTELLAS PHARMA INC., priority 2006, published 2010).

The subject of test [1] is human histone deacetylase (partially purified from Jurkat cells). Nature of the test: Test 1: Determination of histone deacetylase inhibitor activity ([3H] acetyl histone deacetylation). It is filed as biochemical. The note with it: partially purified human HDAC from Jurkat cells, [3H] acetyl-labeled histones, 25° C., 30 minutes; read-out: Test 1: HDAC inhibitory activity IC50. The method, then:
The partial purification of human histone deacetylase, the preparation of [^3H] acetyl histones, and the assay for histone deacetylase activity were performed basically according to the method as proposed by Yoshida et al. as follows.
The human histone deacetylase was partially purified from human T cell leukemia Jurkat cells. Jurkat cells (5×10^8 cells) were suspended in 40 mL of the HDA buffer consisting of 15 mM potassium phosphate, pH 7.5, 5% glycerol and 0.2 mM EDTA. After homogenization, nuclei were collected by centrifugation (35,000×g, 10 min) and homogenized in 20 mL of the same buffer supplemented with 1 M (NH4)2SO4. The viscous homogenate was sonicated and clarified by centrifugation (35,000×g, 10 min), and the deacetylase was precipitated by raising the concentration of (NH4)2SO4 to 3.5 M. The precipitated protein was dissolved in 10 mL of the HDA buffer and dialyzed against 4 liters of the same buffer. The dialyzate was then loaded onto a DEAE-cellulose (Whatman DE52) column (25×85 mm) equilibrated with the same buffer and eluted with 300 mL of a linear gradient (0-0.6 M) of NaCl. A single peak of histone deacetylase activity appeared between 0.3 and 0.4 M NaCl.
To obtain [^3H] acetyl-labeled histone as the substrate for the histone deacetylase assay, 1×10^8 cells of Jurkat in 20 mL of RPMI-1640 medium (supplemented with 10% FBS, penicillin (50 units/mL) and streptomycin (50 μg/mL)) were incubated with 300 MBq [^3H] sodium acetate in the presence of 5 mM sodium butyrate for 30 minutes in 5% CO2-95% air atmosphere at 37° C. in a 75 cm^2 flask, harvested into a centrifuge tube (50 mL), collected by centrifugation at 1000 rpm for 10 minutes, and washed once with phosphate-buffered saline. The washed cells were suspended in 15 mL of ice-cold lysis buffer (10 mM Tris-HCl, 50 mM sodium bisulfite, 1% Triton X-100, 10 mM MgCl2, 8.6% sucrose, pH 6.5). After Dounce homogenization (30 stroke), the nuclei were collected by centrifugation at 1000 rpm for 10 minutes, washed 3 times with 15 mL of the lysis buffer, and once with 15 mL of ice-cooled washing buffer (10 mM Tris-HCl, 13 mM EDTA, pH 7.4) successively. The pellet was suspended in 6 mL of ice-cooled water using a mixer, and 68 μl of H2SO4 was added to the suspension to give a concentration of 0.4 N. After incubation at 4° C. for 1 hour, the suspension was centrifuged for 5 minutes at 15,000 rpm, and the supernatant was taken and mixed with 60 mL of acetone. After overnight incubation at −20° C., the coagulated material was collected by microcentrifugation, air-dried, and stored at −80° C.
For the standard assay, 10 μl of [^3H] acetyl-labeled histones were added to 90 μl of the enzyme fraction, and the mixture was incubated at 25° C. for 30 minutes. The reaction was stopped by addition of 10 μl of HCl aq. The released [^3H] acetic acid was extracted with 1 mL of ethyl acetate, and 0.9 mL of the solvent layer was taken into 10 mL of toluene scintillation solution for determination of radioactivity.

Test [2] relates to splenic cells of Lewis rats. Nature of the test: Test 2: Determination of T-cell growth inhibitor activity (T lymphocyte blastogenesis, Concanavalin A, AlamarBlue). Type of test: cell-based. The note with it: Lewis rat splenic cells, Concanavalin A 1 μg/mL, 72 hours, read-out: Test 2: T-cell growth inhibitory activity IC50. The method, then: The T lymphocyte blastogenesis test was performed in microtiter plates with each well containing 1.5×10^5 splenic cells of Lewis rats in 0.1 mL RPMI-1640 medium supplemented with 10% fetal bovine serum (FBS), […] 2-mercaptoethanol, penicilln (100 units/mL) and streptomycin (100 μg/mL), to which Concanavalin A (1 μg/mL) was added. The cells were incubated at 37° C. in a humidified atmosphere of 5% CO2 for 72 hours. After the culture period, suppressive activities of the test compounds in T lymphocyte blastogenesis were quantified by AlamarBlue (trademark) Assay. The test samples were dissolved in DMSO and further diluted with RPMI-1640 medium and added to the culture. The activities of the test compounds were expressed as IC50.

Where a name gives a salt, the structure may show the parent alone.

`C[C@H](CNC(=O)C1CCCCC1)Nc1cnc(/C=C/C(=O)NO)cn1` [Example 66]: the concentration for half-maximal inhibition (IC50) in test [1] was determined as 3.9 nM; in test [2] it was 21 nM.

With `C[C@H](CN(C)Cc1ccccc1)Nc1cnc(/C=C/C(=O)NO)cn1` [Example 36], the IC50 stood at 4 nM in test [1] and 1.5 nM in test [2].

For the compound `CC(C)[C@@H](Nc1cnc(/C=C/C(=O)NO)cn1)C(=O)Nc1ccccc1` [Example 91], the half-maximal inhibitory concentration (IC50) in test [1] amounted to 1.5 nM; in test [2], 2.6 nM.

Regarding `O=C(/C=C/c1cnc(NCCOc2ccccc2)cn1)NO` [Example 23], the concentration for half-maximal inhibition (IC50) in test [1] was 6 nM; in test [2], 21 nM.

For `C[C@@H](Nc1cnc(/C=C/C(=O)NO)cn1)C(=O)NC1CCCCCC1` [Example 87], the figures for the IC50 in test [1] and in test [2] were 2.3 nM and 3.2 nM, respectively.

With `C[C@@H](Nc1cnc(/C=C/C(=O)NO)cn1)C(=O)N[C@]12CC3C[C@H](C[C@H](C3)C1)C2` [Example 88], the figures for the IC50 in test [1] and in test [2] were 2.7 nM and 1.5 nM, respectively.

In the case of `C[C@H](CN(C)CC1CCCCC1)Nc1cnc(/C=C/C(=O)NO)cn1` [Example 39], the figures for the concentration for half-maximal inhibition (IC50) in test [1] and in test [2] were 0.78 nM and 0.23 nM, respectively.

For `C[C@@H](Nc1cnc(/C=C/C(=O)NO)cn1)C(=O)NC1Cc2ccccc2C1` [Example 86], the concentration for half-maximal inhibition (IC50) in test [1] was found to be 8.2 nM; in test [2], 28 nM.

Turning to `C[C@@H](Nc1ncc(/C=C/C(=O)NO)cc1Cl)C(=O)NCC1CCCCC1` [Example 49, N^2-{3-chloro-5-[(1E)-3-(hydroxyamino)-3-oxoprop-1-en-1-yl]pyridin-2-yl}-N^1-(cyclohexylmethyl)-D-alaninamide], the half-inhibitory concentration (IC50) in test [1] is 25 nM; in test [2], 17 nM.

As to `C[C@H](CN(C)Cc1ccc(Cl)cc1)Nc1ncc(/C=C/C(=O)NO)cc1Cl` [Example 11], the values for the IC50 in test [1] and in test [2] were 8.8 nM and 6.2 nM, respectively.

For `CC(C)[C@@H](Nc1cnc(/C=C/C(=O)NO)cn1)C(=O)NCC1CCCCC1` [Example 57], the values for the IC50 in test [1] and in test [2] were 9.1 nM and 4.7 nM, respectively.

Turning to `O=C(/C=C/c1cnc(NCCNC(=O)C2CCCCC2)c(Cl)c1)NO` [Example 10], the IC50 in test [1] was determined as 6.8 nM; in test [2] it was 17 nM.

Take `O=C(/C=C/c1cnc(NCCNC(=O)c2ccc(Cl)cc2)c(Cl)c1)NO` [Example 3, 4-chloro-N-[2-({3-chloro-5-[(1E)-3-(hydroxyamino)-3-oxo-1-propen-1-yl]-2-pyridinyl}amino)ethyl]benzamide hydrochloride]: the figures for the IC50 in test [1] and in test [2] were 1.7 nM and 18 nM, respectively.
